The text below walks through data of ChEMBL document CHEMBL4308888, “Discovery of novel pyruvate dehydrogenase kinases inhibitors by screening of an in-house small molecule library for anti-lung cancer therapeutics” (Bioorg Med Chem Lett, 2019).

The term inhibition denotes how much of the control response was suppressed. In general, IC50 refers to the concentration that gives 50% inhibition. What is called Kd is the free concentration of one partner at which half of the binding sites on the other are occupied at equilibrium, for simple one-to-one binding. By EC50 is commonly meant the concentration that produces a half-maximal response. Lower therefore signals an effect from little substance.

Data set [1] deals with NCI-H1975. The data set is described as follows: Antiproliferative activity against human NCI-H1975 cells assessed as reduction in cell viability at 20 mM after 72 hrs by MTT assay. The format is functional, cell-based. On the technique in general: Formazan colour is commonly taken as a measure of viable cells.
For data set [2], the target named is T1, [Pyruvate dehydrogenase (acetyl-transferring)] kinase isozyme 1, mitochondrial (Homo sapiens, UniProt Q15118). Particulars: 10 mM.
Description: Inhibition of PDK1 (unknown origin) at 10 mM using PDH E1 as substrate measured after 30 mins by kinase-glo assay relative to control
The subject of data set [3] is NCI-H1650. Put plainly: Antiproliferative activity against human NCI-H1650 cells assessed as reduction in cell viability after 72 hrs by MTT assay. The data set is classed as functional, cell-based. Particulars: NCI-H1650, 72 h.
The target of data set [4] is [Pyruvate dehydrogenase (acetyl-transferring)] kinase isozyme 3, mitochondrial (Homo sapiens, UniProt Q15120). Put plainly: Binding affinity to SUMO-fused/His-tagged PDK3 (unknown origin) expressed in Escherichia coli by isothermal calorimetric titration analysis. A general note: In ITC the heat of successive injections is recorded.
For data set [5], the system named is NCI-H1975. Put plainly: Antiproliferative activity against human NCI-H1975 cells assessed as reduction in cell viability at 10 uM after 72 hrs by MTT assay. The data set is classed as functional, cell-based.
The target of data set [6] is T2, Pyruvate dehydrogenase kinase (Homo sapiens) (UniProt Q15119+Q15120+Q16654+Q15118). Put plainly: Inhibition of PDK in human NCI-H1975 cells assessed as reduction in phosphorylated S293 PDC E1 level at 10 uM by ELISA. The data set is classed as cell-based. (In an ELISA, binding on a coated surface is turned into a signal by an enzyme label.)
The target of data set [7] is T1, [Pyruvate dehydrogenase (acetyl-transferring)] kinase isozyme 1, mitochondrial. The data set is described as follows: Binding affinity to SUMO-fused/His-tagged PDK1 (unknown origin) expressed in Escherichia coli by isothermal calorimetric titration analysis.
For data set [8] the target is unchanged. Put plainly: Inhibition of PDK1 (unknown origin) using PDH E1 as substrate measured after 30 mins by kinase-glo assay.
The target of data set [9] is T2, Pyruvate dehydrogenase kinase (Homo sapiens). Put plainly: Inhibition of PDK in human NCI-H1975 cells assessed as reduction in phosphorylated S293 PDC E1 level by ELISA. The data set is classed as cell-based.
Data set [10] addresses [Pyruvate dehydrogenase (acetyl-transferring)] kinase isozyme 4, mitochondrial (Homo sapiens, UniProt Q16654). The data set is described as follows: Binding affinity to SUMO-fused/His-tagged PDK4 (unknown origin) expressed in Escherichia coli by isothermal calorimetric titration analysis.
Data set [11] has as its target T2, Pyruvate dehydrogenase kinase (Homo sapiens). The data set is described as follows: Inhibition of PDK in human NCI-H1975 cells assessed as reduction in phosphorylated S293 PDC E1 level by Western blot analysis. The data set is classed as cell-based.
Data set [12] has the same target. Put plainly: Inhibition of PDK in human NCI-H1975 cells assessed as switch of pyruvate metabolism from lactate production to oxidative phosphorylation by measuring increase in oxygen consumption rate measured after 2 hrs. The format is cell-based.
Data set [13] shares this target. Put plainly: Inhibition of PDK in human NCI-H1975 cells assessed as switch of pyruvate metabolism from lactate production to oxidative phosphorylation by measuring decrease in lactate production at 1 to 10 uM measured after 4 hrs. The format is cell-based.
Data set [14] addresses [Pyruvate dehydrogenase (acetyl-transferring)] kinase isozyme 2, mitochondrial (Homo sapiens, UniProt Q15119). The data set is described as follows: Binding affinity to SUMO-fused/His-tagged PDK2 (unknown origin) expressed in Escherichia coli by isothermal calorimetric titration analysis.
Data set [15] has as its target T2, Pyruvate dehydrogenase kinase (Homo sapiens). The data set is described as follows: Inhibition of PDK in human NCI-H1975 cells assessed as switch of pyruvate metabolism from lactate production to oxidative phosphorylation by measuring increase in ROS production at 1 to 10 uM measured after 4 hrs by DCFH-DA dye based assay. The data set is classed as cell-based.

The test system of data set [16] is A549. Put plainly: cells. Particulars: Homo sapiens, A549, 72 h.
Description: Antiproliferative activity against human A549 cells assessed as reduction in cell viability after 72 hrs by MTT assay
Data set [17] relates to NCI-H1975. Put plainly: Antiproliferative activity against human NCI-H1975 cells assessed as reduction in cell viability after 72 hrs by MTT assay. The format is functional, cell-based. Particulars: NCI-H1975, 72 h.
Data set [18] has as its target T1, [Pyruvate dehydrogenase (acetyl-transferring)] kinase isozyme 1, mitochondrial. Put plainly: Potency index, ratio of DCA EC50 to test compound EC50 for inhibition of PDK1 (unknown origin).
The test system of data set [19] is MRC5. Put plainly: Cytotoxicity against human MRC5 cells assessed as reduction in cell viability up to 40 uM after 72 hrs by MTT assay. The format is cell-based. The conditions noted are these: mrc5, 72 h.
For data set [20], the target named is T1, [Pyruvate dehydrogenase (acetyl-transferring)] kinase isozyme 1, mitochondrial. The data set is described as follows: Inhibition of PDK1 (unknown origin) at 10 uM using PDH E1 as substrate measured after 30 mins by kinase-glo assay relative to control.

The source made the active and inactive calls. The rule behind the calls is not given here. Bounds are passed on as bounds.

T1 sequence (Q15118 whole entry): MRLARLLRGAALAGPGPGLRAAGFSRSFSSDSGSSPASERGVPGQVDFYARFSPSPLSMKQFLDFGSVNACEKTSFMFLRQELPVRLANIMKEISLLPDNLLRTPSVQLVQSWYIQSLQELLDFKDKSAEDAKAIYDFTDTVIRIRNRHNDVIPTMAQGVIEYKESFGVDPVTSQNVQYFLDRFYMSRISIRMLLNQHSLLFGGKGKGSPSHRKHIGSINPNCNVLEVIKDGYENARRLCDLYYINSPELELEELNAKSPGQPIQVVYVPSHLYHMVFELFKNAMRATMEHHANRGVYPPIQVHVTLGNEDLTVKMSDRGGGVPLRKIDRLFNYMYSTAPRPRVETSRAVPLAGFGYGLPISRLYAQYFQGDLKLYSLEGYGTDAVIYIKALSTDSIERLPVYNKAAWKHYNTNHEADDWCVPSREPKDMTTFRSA
[Pyruvate dehydrogenase (acetyl-transferring)] kinase isozyme 3, mitochondrial, sequence (Q15120 whole entry, the tested form may be a part): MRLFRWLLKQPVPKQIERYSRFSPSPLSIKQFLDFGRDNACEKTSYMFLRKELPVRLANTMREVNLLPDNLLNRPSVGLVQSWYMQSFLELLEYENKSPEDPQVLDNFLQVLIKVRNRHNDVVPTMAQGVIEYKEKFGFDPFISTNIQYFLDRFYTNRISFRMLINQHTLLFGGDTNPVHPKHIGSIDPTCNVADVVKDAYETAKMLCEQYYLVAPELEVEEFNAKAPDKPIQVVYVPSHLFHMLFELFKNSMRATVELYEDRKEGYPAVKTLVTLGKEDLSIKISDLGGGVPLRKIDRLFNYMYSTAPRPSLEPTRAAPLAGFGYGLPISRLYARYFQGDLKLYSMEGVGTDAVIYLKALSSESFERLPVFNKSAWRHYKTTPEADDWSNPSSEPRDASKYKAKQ
[Pyruvate dehydrogenase (acetyl-transferring)] kinase isozyme 4, mitochondrial, sequence (Q16654 whole entry, the tested form may be a part): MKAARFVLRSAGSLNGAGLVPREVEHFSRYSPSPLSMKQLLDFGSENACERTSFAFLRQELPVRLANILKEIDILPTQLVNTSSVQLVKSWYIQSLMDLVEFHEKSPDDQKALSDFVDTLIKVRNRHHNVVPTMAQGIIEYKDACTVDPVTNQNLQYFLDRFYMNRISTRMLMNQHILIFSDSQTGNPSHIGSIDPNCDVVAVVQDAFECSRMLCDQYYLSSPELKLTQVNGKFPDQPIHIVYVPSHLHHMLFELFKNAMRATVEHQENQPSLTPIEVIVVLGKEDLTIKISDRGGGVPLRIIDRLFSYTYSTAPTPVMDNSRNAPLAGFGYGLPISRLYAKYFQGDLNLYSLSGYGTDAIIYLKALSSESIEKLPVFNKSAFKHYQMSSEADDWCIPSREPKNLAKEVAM

`O=C([O-])C(Cl)Cl.[Na+]` [SODIUM DICHLOROACETATE]: the outcome in data set [1] was Active. The compound further registered an inhibition in data set [2] of 64.2%. Moreover, the IC50 in [3] came to 16300 µM.

In the case of `OCCn1nc(C2CCOCC2)nc1[C@@H]1CCCCN1Cc1ccccc1`, the Kd in data set [4] was 2.1 µM; in [7], 0.89 µM; in [10], 7.9 µM; in [14], 3.7 µM. Besides, the outcome in [5] was Active. Besides, the inhibition result in data set [6], in data set [13] and in data set [15] was “Active” each time. The EC50 in data set [8] is 0.42 µM. Moreover, the inhibition entry in data set [9] is “Dose-dependent effect”; in [11] it was “Dose-dependent effect”; in data set [12], “Dose-dependent effect”; in [20], 93.7%. Moreover, the IC50 was 7.6 µM in data set [3], 5.9 µM in data set [16] and 3.32 µM in [17]. The Ratio EC50 in [18] is above 1000. Further, the Activity entry in data set [19] was “Non-Toxic”.

As to `CCCCN(Cc1ccncc1)C(=O)c1cc(-c2ccccc2O)n[nH]1`, the Kd was determined as 7.8 µM in [4], 5.8 µM in data set [7], 10.7 µM in data set [10] and 2.9 µM in [14]. Further, in data set [6], the inhibition result was “Active”. The EC50 in data set [8] was determined as 1.99 µM. Besides, in [18], the Ratio EC50 was above 1000. Moreover, the inhibition in data set [20] was found to be 89.6%.

`CC(C)=CCN1CCN(Cc2c(C)n(C)n(-c3ccccc3)c2=O)C[C@@H]1CCO`: the Kd in data set [4] was 8.9 µM; in [7] it was 10.5 µM; in data set [14], 15.9 µM. Besides, the inhibition result in data set [6] was “Active”. For the same compound, in data set [8], it took 4.64 µM to reach a half-maximal effect (EC50). Also, the Ratio EC50 in data set [18] is above 1000. The inhibition in data set [20] is 86.9%.

Take `O=C(c1ccccc1)C(Cl)Cl`: the outcome in data set [5] was Active. The results for the IC50 in [3] and in data set [16] were 7.9 µM and 4.7 µM, respectively.

Turning to `CN(Cc1cnc2ccccn12)C(=O)c1cc(COc2ccc3c(c2)OCO3)[nH]n1`, the Kd in [4] was 4.7 µM; in data set [7] it was 1.1 µM; in [10], 2.6 µM; in data set [14] it was 2 µM. Also, the result in [5] was Active. Besides, in [6], the inhibition entry was “Active”. This compound yielded an EC50 in data set [8] of 0.5 µM. Also, the inhibition entry is “Dose-dependent effect” in [9], “Dose-dependent effect” in data set [11] and 95.6% in [20]. Also, the IC50 in data set [3] amounted to 15.7 µM; in [16], 17.8 µM. The Ratio EC50 in data set [18] is above 1000. The Activity entry in data set [19] is recorded as “Non-Toxic”.
